Reference: patent US8455510B2
Entries after “also recorded” stand apart in the source; their conditions may differ. Like-named read-outs stand apart in the source and are kept apart here.

Assays:
[1] = tested on: HL-60 cells; test: SRB growth inhibition, HL-60 cells; format: cell-based, human; details: SRB method, 72 hours, different concentrations, FIG. 1
Experimental: (§1) After Rh30 cells were treated by the compound at different concentrations, the cell survival rate was detected by SRB method.
(§2) The above various kinds of tumor cells in logarithmic growth phase were inoculated on a 96-well plate with 90 μl per well, and allowed to attach for 24 hours, followed by the addition of the compound with 10 μl per well. For each concentration, the test was carried out in triplicate wells, and included a control well containing the aqueous medium of normal saline at the corresponding concentration and a blank well without cells for zeroing. The tumor cells were cultured for 72 hours at 37° C. and 5% CO2, and then the culture medium was removed. The cells were fixed with cold 10% TCA (trichloroacetic acid) at 4° C. for 1 hour, then washed with distilled water for 5 times, and dried at room temperature, followed by addition of a SRB (Sigma) solution (4 mg/ml) in 1% glacial acetic acid at 100 μl per well. The cells were stained at room temperature for 15 min, and the supernatant was removed. The plate was washed by 1% acetic acid for 5 times and dried at room temperature. Finally, Tris-solution was added at 150 μl per well, and the A value was measured at a wavelength of 520 nm on an ELISA Reader.

[2] = molecular target: T1, FKBP-12 protein (Homo sapiens, UniProt P62942); test: SPR (surface plasma resonance) binding with FKBP-12
T1 construct: purchased sigma Co
T1 sequence (P62942 whole entry, species assumed): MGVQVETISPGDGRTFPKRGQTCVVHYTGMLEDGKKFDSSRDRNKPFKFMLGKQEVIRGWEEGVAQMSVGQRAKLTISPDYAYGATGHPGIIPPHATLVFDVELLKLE
Experimental: (1) FKBP-12 protein was purchased from sigma Co.
(2) HBS-EP buffer solution (10 mM Hepes, 150 mM NaCl, 3.4 mM EDTA, 0.005% (v/v) surfactant P20, pH 7.4)
(3) Activating reagents EDC and NHS, and blocking reagents Ethanolamine, etc., were purchased from BIACORE AB Co. (Uppsala, Sweden).
(4) BIAcore 3000 and CM5 chip were purchased from BIACORE AB Co. (Uppsala, Sweden).
(2) […] was coupled to the FC2 channel on CM5 chip by using the Wizard for amino-coupling in Biacore 3000 controlling soft. 3.3 g/L of FKBP-12 protein was diluted with 10 mM NaAC (pH 4.6) to 66 μg/ml. The surface of the chip was washed by injecting a mixture of 0.1M1-(3-dimethylaminopropyl)-3-ethylcarbodiimide hydrochloride (EDCI) and 0.1M N-hydroxysuccinimide (NHS) (1:1) at a flow rate of 20 μL/min for 7 min. After that, the protein solution was injected, and then a 1M cholamine (pH 8.5) solution was fed for 7 min to block the activated surface of the chip. Preliminary screening and pharmacokinetic tests on the compounds
The binding abilities of small molecular compounds with FKBP-12 protein were evaluated by SPR (surface plasma resonance). The stock solution of the compound was 10 mM, and was diluted by HBS-EP buffer solution at given ratios. Pharmacokinetic tests were carried out by the Wizard for kinetic analysis in Biacore 3000 controlling soft. The resulted data were fitted by 1:1 Langmuir binding model or stability model in Biacore 3000 analytical soft to obtain the exact kinetic and thermodynamic constants.

[3] = tested on: MCF-7 cells; test: SRB growth inhibition, MCF-7 cells; format: cell-based, human; details: SRB method, 72 hours, different concentrations, FIG. 1
Experimental: as §1, §2

[4] = Immunosuppressive activity assay: cytotoxicity; format: cell-based
[5] = tested on: human prostate cancer PC-3 xenograft; test: PC-3 xenograft on nude mice; details: 1-5 × 3.5 w; for TV (mm3) d0: baseline
[6] = tested on: CAKI-1 cells; test: SRB growth inhibition, CAKI-1 cells; format: cell-based, human; details: SRB method, 72 hours, different concentrations, FIG. 1
Experimental: as §1, §2

[7] = tested on: T Cells; test: Immunosuppressive activity assay: T cells inhibitory activity; format: cell-based; details: T-cell; Table 10
[8] = tested on: phosphorylation levels of p70S6K and 4E-BP1; test: Western blotting of mTOR downstream substrate phosphorylation in tumor cells; format: cell-based, human; details: Rh30, PC-3, MCF-7 and CAKI-1 cells, 1 hour treatment, IGF stimulation, FIG. 2
Experimental: Cells were inoculated on a 12-well plate with given densities and allowed to attach overnight. Then the medium was changed to a serum-free one. After starved for 24 hours, the cells were treated with the compound at corresponding concentrations for 1 hour, and then stimulated by IGF for 10 min. The cells were collected, and the phosphorylation levels of p70S6K and 4E-BP1 in the cells were measured by using Western blotting.

[9] = tested on: PC-3 cells; test: SRB growth inhibition, PC-3 cells; format: cell-based, human; details: SRB method, 72 hours, different concentrations, FIG. 1
Experimental: as §1, §2

[10] = tested on: Rh30 cells; test: SRB growth inhibition, Rh30 cells; format: cell-based, human; details: SRB method, 72 hours, different concentrations, FIG. 1
Experimental: as §1, §2

[11] = tested on: human rhabdomyosarcoma RH-30 xenograft; test: RH-30 xenograft on nude mice; details: for TV (mm^3) d0: baseline;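 as to all read-outs here: male BALB/cA nude mice with subcutaneous RH-30 tumors, oral dosing versus solvent-fed controls, caliper tumor volume, RTV relative to grouping day, T/C as treated RTV over control RTV ×100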
Description: Animals: BALB/cA nude mice, male, 40-45 days old, body weight: 21±2 g, provided by Shanghai Institute of Materia Medica, Chinese Academy of Sciences. License No.: SCXK (Shanghai) 2004-0002. Animal number in each group: 6 in negative control group, and 6 in administration group.
The amount of inoculated cells was 5×10^6. After the xenograft was formed by inoculation, it was used after passed for 3 generations in nude mice.

[12] = Table 2, 5 mg/kg p.o, 1-5 × 3 w
[13] = Table 2, 10 mg/kg p.o, 1-5 × 3 w

In the case of `CO[C@H]1CC2CC[C@@H](C)[C@@](O)(O2)C(=O)C(=O)N2CCCCC2C(=O)O[C@H]([C@H](C)C[C@@H]2CC[C@@H](OC(=O)OCC(O)CO)[C@H](OC)C2)CC(=O)[C@H](C)/C=C(\C)[C@@H](OC(=O)OCC(O)CO)[C@@H](OC)C(=O)[C@H](C)C[C@H](C)/C=C/C=C/C=C/1C` (stereo partly shown) [Y50], the “inhibitory effects on the growth of HL-60 cells” value [1] is reported as “comparable to those of rapamycin”, the “binding with FKBP12” value [2] is reported as “concentration-dependently bind” and the Kd ([2]; FKBP12) is reported as 0.00026 µM. For the same compound, the koff ([2]; FKBP12) was 0.14 × 10^−3 S^−1, the kon ([2]; FKBP12) was 5.24 × 10^5 M^−1S^−1 and the “R^U (Response Unit) compared with rapamycin” value ([2]; at the same concentration) was “higher”. The “concentration to reach the saturation state for the binding with FKBP12” value ([2]; compared with rapamycin) was “lower than that for rapamycin”, the “inhibitory effects on the growth of MCF-7 cells” value [3] was “comparable to those of rapamycin” and the “Safety Index CC50/IC50” value ([4]; Table 10) was over 10.9. For the same compound, the CC50 ([4]; Table 10, value beyond the >100 μM bound, read-out: Cytotoxicity CC50, value in brackets) was 7590 µM, the CC50 ([4]; Table 10, read-out: Cytotoxicity CC50) was over 100 µM and the “Body Weight (g) end” value ([5]; Table 3, 2.5 mg/kg p.o) was 17.7 g. The “Body Weight (g) start” value ([5]; Table 3, 2.5 mg/kg p.o) was 19.7 g, the RTV ([5]; Table 3, 2.5 mg/kg p.o) was 2.6 ± 1.1 and the “T/C (%)” value ([5]; Table 3, 2.5 mg/kg p.o) was 40.2%. The “TV (mm3) d21” value ([5]; Table 3, 2.5 mg/kg p.o) was 273 ± 163 mm3, the “TV (mm3) d0” value ([5]; Table 3, 2.5 mg/kg p.o) was 103 ± 35 mm3 and the “Body Weight (g) end” value ([5]; Table 3, 5 mg/kg p.o) was 22.3 g. The “Body Weight (g) start” value ([5]; Table 3, 5 mg/kg p.o) was 22.7 g, the RTV ([5]; Table 3, 5 mg/kg p.o) was 0.65 ± 0.4 and the “T/C (%)” value ([5]; Table 3, 5 mg/kg p.o) was 10.0%. The “TV (mm3) d21” value ([5]; Table 3, 5 mg/kg p.o) was 70 ± 59 mm3, the “TV (mm3) d0” value ([5]; Table 3, 5 mg/kg p.o) was 98 ± 42 mm3 and the “inhibitory effects on the growth of CAKI-1 cells” value [6] was “comparable to those of rapamycin”. The IC50 [7] was 9.1 µM, the “inhibition of mTOR-catalyzed phosphorylation of p70S6K and 4E-BP1” value [8] was “concentration-dependently suppress; also recorded: comparable inhibitory effects to those of rapamycin” and the “inhibitory effects on the growth of PC-3 cells” value [9] was “comparable to those of rapamycin”. The “inhibitory effects on the growth of Rh30 cells” value [10] was “comparable to those of rapamycin”, the “Body Weight (g) end” value [11, 12] was 25.8 g and the “Body Weight (g) start” value [11, 12] was 22.2 g. The RTV [11, 12] was 2.9 ± 0.5, the “T/C (%)” value [11, 12] was 32.5% and the “TV (mm^3) d21” value [11, 12] was 380 ± 146 mm^3. The “TV (mm^3) d0” value [11, 12] was 132 ± 47 mm^3, the “Body Weight (g) end” value [11, 13] was 26.0 g and the “Body Weight (g) start” value [11, 13] was 23.0 g. The RTV [11, 13] was 3.5 ± 1.1, the “T/C (%)” value [11, 13] was 32.9% and the “TV (mm^3) d21” value [11, 13] was 415 ± 71 mm^3. The “TV (mm^3) d0” value [11, 13] was 130 ± 50 mm^3, the “Body Weight (g) end” value ([11]; Table 4, 5 mg/kg po, 1-5/2 w) was 21.5 g and the “Body Weight (g) start” value ([11]; Table 4, 5 mg/kg po, 1-5/2 w) was 20.0 g. The RTV ([11]; Table 4, 5 mg/kg po, 1-5/2 w) was 2.0 ± 0.5, the “T/C (%)” value ([11]; Table 4, 5 mg/kg po, 1-5/2 w) was 46.6% and the “TV (mm^3) d14” value ([11]; Table 4, 5 mg/kg po, 1-5/2 w) was 323 ± 124 mm^3. The “TV (mm^3) d0” value ([11]; Table 4, 5 mg/kg po, 1-5/2 w) was 160 ± 47 mm^3.
